As a reminder, the AC50 is the concentration giving half of the maximal activity seen. What is called IC50 is the concentration that gives 50% inhibition.

For one assay, the system named is MYB mRNA. In words: Splicing RT-qPCR assay, MYB canonical (CJ) and alternative (AJ) junction mRNA. The format is cell-based, human. The note with it: Homo sapiens, 24 h, A673 or K562 cells, 24 hours compound treatment, RT-qPCR; for AC50: read-out: MYB AJ (AC50, increase in alternative junction mRNA); for IC50: read-out: MYB CJ (IC50, decrease in canonical junction mRNA). The method, then:
(§1) Compounds described herein were used to modulate RNA transcript abundance in cells. The expression of a target mRNA was measured by detecting the formation of an exon-exon junction in the canonical transcript (CJ). A compound mediated exon-inclusion event was detected by observing an increase in formation of a new junction with an alternative exon (AJ). Real-time qPCR assays were used to detect these splicing switches and interrogate the potency of various compounds towards different target genes. A high-throughput real time quantitative PCR (RT-qPCR) assay was developed to measure these two isoforms of the mRNA (CJ and AJ) for exemplary genes, such as HTT, SMN2, and MYB, together with a control housekeeping gene, GAPDH or GUSB or PPIA, used for normalization. Briefly, the A673 or K562 cell line was treated with various compounds described herein (e.g., compounds of Formula (I)). After treatment, the levels of the HTT, MYB, or SMN2 mRNA targets were determined from each sample of cell lysate by cDNA synthesis followed by qPCR.
(§2) • Cells-to-CT 1-step kit: ThermoFisher A25602, Cells-to-CT lysis reagent: ThermoFisher 4391851C, TaqMan™ Fast Virus 1-Step Master Mix: ThermoFisher 4444436 • GAPDH: VIC-PL, ThermoFisher 4326317E (Assay: Hs99999905_m1)—used for K562/suspension cell lines • GUSB: VIC-PL, ThermoFisher 4326320E (Assay: Hs99999908_m1)—used for K562/suspension cell lines • PPIA: VIC-PL, ThermoFisher 4326316E (Assay: Hs99999904_m1)—used for A673/adherent cell lines
(§3) The A673 cell line was cultured in DMEM with 10% FBS. Cells were diluted with full growth media and plated in a 96-well plate (15,000 cells in 100 ul media per well). The plate was incubated at 37° C. with 5% CO2 for 24 hours to allow cells to adhere. An 11-point 3-fold serial dilution of the compounds was made in DMSO then diluted in media in an intermediate plate. Compounds were transferred from the intermediate plate to the cell plate with the top dose at a final concentration of 10 uM in the well. Final DMSO concentration was kept at or below 0.25%. The cell plate was returned to the incubator at 37° C. with 5% CO2 for an additional 24 hours.
(§4) The K562 cell line was cultured in IMDM with 10% FBS. For K562, cells were diluted with full growth media and plated in either a 96-well plate (50,000 cells in 50 uL media per well) or a 384-well plate (8,000-40,000 cells in 45 uL media per well). An 11-point 3-fold serial dilution of the compounds were made in DMSO then diluted in media in an intermediate plate. Compound was transferred from the intermediate plate to the cell plate with the top dose at a final concentration of 10 uM in the well. Final DMSO concentration was kept at or below 0.25%. Final volume was 100 uL for 96-well plate and 50 uL for 384-well plate. The cell plate was then placed in an incubator at 37° C. with 5% CO2 for 24 hours.
(§5) The cells were then gently washed with 50 uL-100 uL cold PBS before proceeding to addition of lysis buffer. 30 uL-50 uL of room temperature lysis buffer with DNAse I (and optionally RNAsin) was added to each well. Cells were shaken/mixed thoroughly at room temperature for 5-10 minutes for lysis to take place and then 3 uL-5 uL of room temperature stop solution was added and wells were shaken/mixed again. After 2-5 minutes, the cell lysate plate was transferred to ice for RT-qPCR reaction setup. The lysates could also be frozen at −80° C. for later use.
(§6) In some cases, a direct lysis buffer was used. An appropriate volume of 3× lysis buffer (10 mM Tris, 150 mM NaCl, 1.5%-2.5% Igepal and 0.1-1 U/uL RNAsin, pH 7.4) was directly added to either K562 or A673 cells in media and mixed by pipetting 3 times. The plates were then incubated at room temperature with shaking/rocking for 20-50 minutes to allow for lysis to take place. After this time, the cell lysate plate was transferred to ice to set up for the RT-qPCR reactions. The lysates could also be frozen at −80° C. for later use. […]
On the technique in general: In qPCR the cycle at which signal appears reflects the starting amount.

The test system of the next assay is HTT mRNA. Kind of assay: Splicing RT-qPCR assay, HTT canonical (CJ) and alternative (AJ) junction mRNA. The assay is classed as cell-based, human. The note with it: Homo sapiens, A673 or K562 cells, 24 hours compound treatment; for IC50: 24 h, read-out: HTT CJ (IC50, decrease in canonical junction mRNA); for AC50: read-out: HTT AJ (AC50, increase in alternative junction mRNA). The method, then:
as §1, §2, §3, §4, §5, §6

For `Cn1cc2c(N3CCNCC3)ccc(C(=O)Nc3ccc4c(c3)oc(=O)n4C)c2n1` [Compound 499, 2-methyl-N-(3-methyl-2-oxo-2,3-dihydrobenzo[d]oxazol-6-yl)-4-(piperazin-1-yl)-2H-indazole-7-carboxamide], the AC50 with MYB mRNA and in the assay on HTT mRNA was more than 10000 nM in each case. For the same compound, the IC50 in the assay with MYB mRNA and in the assay with HTT mRNA was more than 10000 nM in each case.
Consider `CCNC1CCN(c2ccc(C/N=C3\C=C(F)c4nc(C)cn4C3)c3nn(C)cc23)CC1` [Compound 500, N-ethyl-1-[7-({[(6E)-8-fluoro-2-methyl-5H-imidazo[1,2-a]pyridin-6-ylidene]amino}methyl)-2-methylindazol-4-yl]piperidin-4-amine], for which, in the assay on MYB mRNA, the concentration at half-maximal activity (AC50) is more than 10000 nM and the IC50 is more than 10000 nM. In the assay on HTT mRNA, the concentration for half-maximal inhibition (IC50) was more than 10000 nM and the AC50 was more than 10000 nM.
Consider `CCNC1CCN(c2ccc(C(=O)Nc3cn4cc(C)nc4c(F)c3OC)c3oc(C)cc23)CC1` [Compound 501, 4-(4-(ethylamino)piperidin-1-yl)-N-(8-fluoro-7-methoxy-2-methylimidazo[1,2-a]pyridin-6-yl)-2-methylbenzofuran-7-carboxamide 2,2,2-trifluoroacetate], for which the AC50 in the assay with MYB mRNA and in the assay on HTT mRNA was less than 100 nM in each case. For the same compound, the IC50 in the assay on MYB mRNA and in the assay with HTT mRNA was less than 100 nM throughout.
With `C=Cn1cc2c(N3CCC(NC)CC3)ccc(C(=O)Nc3cc(F)c4nc(C)cn4c3)c2n1` [Compound 502, 2-ethenyl-N-{8-fluoro-2-methylimidazo[1,2-a]pyridin-6-yl}-4-[4-(methylamino)piperidin-1-yl]indazole-7-carboxamide], the figures for the AC50 in the assay on MYB mRNA and in the assay with HTT mRNA were less than 100 nM and 100 to 1000 nM, respectively. Also, the IC50 in the assay on MYB mRNA and in the assay with HTT mRNA was less than 100 nM throughout.
With `C=Cn1cc2c(N3CCC(NCC)CC3)ccc(C(=O)Nc3cc(F)c4nc(C)cn4c3)c2n1` [Compound 503, 2-ethenyl-4-[4-(ethylamino)piperidin-1-yl]-N-{8-fluoro-2-methylimidazo[1,2-a]pyridin-6-yl}indazole-7-carboxamide], the AC50 in the assay on MYB mRNA and with HTT mRNA was less than 100 nM throughout. The values for the IC50 in the assay with MYB mRNA and in the assay with HTT mRNA were less than 100 nM and 100 to 1000 nM, respectively.
As for `COCc1nc2c(F)cc(NC(=O)c3ccc(N4CCNCC4)c4cn(C)nc34)cc2o1` [Compound 504, N-[4-fluoro-2-(methoxymethyl)-1,3-benzoxazol-6-yl]-2-methyl-4-(piperazin-1-yl) indazole-7-carboxamide], in the assay with MYB mRNA, the AC50 fell in the range of 1000 to 10000 nM and the IC50 was in the range of 1000 to 10000 nM. In the assay on HTT mRNA, the IC50 was in the range of 1000 to 10000 nM and the AC50 fell in the range of 1000 to 10000 nM.
Turning to `CCn1cc2c(OC3CCNCC3)ccc(C(=O)Nc3cc(F)c4nc(C)cn4c3)c2n1` [Compound 505, 2-ethyl-N-{8-fluoro-2-methylimidazo[1,2-a]pyridin-6-yl}-4-(piperidin-4-yloxy) indazole-7-carboxamide], in the assay with MYB mRNA, the AC50 lay within 100 to 1000 nM and the IC50 fell in the range of 100 to 1000 nM. In addition, in the assay on HTT mRNA, the IC50 fell in the range of 1000 to 10000 nM and the AC50 lay within 1000 to 10000 nM.
Consider `CCn1cc2c(C3=CCNCC3)ccc(C(=O)Nc3cc(F)c4nc(C)cn4c3)c2n1` [Compound 506, 2-ethyl-N-{8-fluoro-2-methylimidazo[1,2-a]pyridin-6-yl}-4-(1,2,3,6-tetrahydropyridin-4-yl) indazole-7-carboxamide], for which, in the assay on MYB mRNA, the AC50 was 100 to 1000 nM and the IC50 fell in the range of 100 to 1000 nM. Also, in the assay with HTT mRNA, the IC50 was in the range of 100 to 1000 nM and the AC50 is 1000 to 10000 nM.
On to `Cc1cn2cc(NC(=O)c3ccc(N4CCNCC4)c4cn(C)nc34)nc(C#N)c2n1` [Compound 507, N-{8-cyano-2-methylimidazo[1,2-a]pyrazin-6-yl}-2-methyl-4-(piperazin-1-yl) indazole-7-carboxamide], for which, in the assay on MYB mRNA, the AC50 was 100 to 1000 nM and the IC50 lay within 100 to 1000 nM. Further, in the assay with HTT mRNA, the IC50 was in the range of 1000 to 10000 nM and the AC50 lay in the range of 1000 to 10000 nM.
For the compound `CCn1cc2c(N3CCC(CC)(N(C)C)CC3)ccc(C(=O)Nc3cc(F)c4nc(C)cn4c3)c2n1` [Compound 508, 4-[4-(dimethylamino)-4-ethylpiperidin-1-yl]-2-ethyl-N-{8-fluoro-2-methylimidazo[1,2-a]pyridin-6-yl}indazole-7-carboxamide], in the assay on MYB mRNA, the AC50 is less than 100 nM and the IC50 is less than 100 nM. Moreover, in the assay on HTT mRNA, the IC50 is less than 100 nM and the AC50 lay within 100 to 1000 nM.
Take `Cc1nc2c(F)cc(NC(=O)c3ccc(N4CCNCC4)c4cn(C)nc34)cc2[nH]1` [Compound 509]: in the assay with MYB mRNA, the AC50 lay within 1000 to 10000 nM and the IC50 fell in the range of 1000 to 10000 nM. In addition, in the assay with HTT mRNA, the IC50 is more than 10000 nM and the AC50 is more than 10000 nM.
Take `COCCn1cc2c(N3CCNCC3)ccc(C(=O)Nc3cn4cc(C)nc4c(OC)n3)c2n1` [Compound 510, N-{8-methoxy-2-methylimidazo[1,2-a]pyrazin-6-yl}-2-(2-methoxyethyl)-4-(piperazin-1-yl) indazole-7-carboxamide]: in the assay with MYB mRNA, the AC50 lay in the range of 100 to 1000 nM and the IC50 lay within 100 to 1000 nM. In addition, in the assay with HTT mRNA, the IC50 was in the range of 1000 to 10000 nM and the AC50 was 1000 to 10000 nM.
Turning to `Cc1nc2c(C)cc(NC(=O)c3ccc(N4CCNCC4)c4cn(C)nc34)nc2o1` [Compound 511, N-{2,7-dimethyl-[1,3]oxazolo[5,4-b]pyridin-5-yl}-2-methyl-4-(piperazin-1-yl) indazole-7-carboxamide], in the assay on MYB mRNA, the AC50 lay within 100 to 1000 nM and the IC50 lay in the range of 100 to 1000 nM. Further, in the assay with HTT mRNA, the IC50 was in the range of 100 to 1000 nM and the AC50 was in the range of 100 to 1000 nM.
Turning to `CCn1cc2c([C@@]34CCNCC3C4)ccc(C(=O)Nc3cc(F)c4nc(C)cn4c3)c2n1` (some centres unmarked) [Compound 513], in the assay with MYB mRNA, the AC50 was in the range of 100 to 1000 nM and the IC50 lay in the range of 100 to 1000 nM. Also, in the assay on HTT mRNA, the IC50 was 1000 to 10000 nM and the AC50 was more than 10000 nM.
Regarding `Cn1cc2c(N3CCNCC3)ccc(C(=O)Nc3cc(F)c4nc(CF)oc4c3)c2n1` [Compound 514, N-[4-fluoro-2-(fluoromethyl)-1,3-benzoxazol-6-yl]-2-methyl-4-(piperazin-1-yl) indazole-7-carboxamide], in the assay on MYB mRNA, the AC50 is less than 100 nM and the IC50 is less than 100 nM. In addition, in the assay on HTT mRNA, the concentration for half-maximal inhibition (IC50) lay in the range of 100 to 1000 nM and the AC50 is 100 to 1000 nM.
As to `CCn1cc2c(N3CCC(CC)(NC)CC3)ccc(C(=O)Nc3cc(F)c4nc(C)cn4c3)c2n1` [Compound 515, 2-ethyl-4-[4-ethyl-4-(methylamino)piperidin-1-yl]-N-{8-fluoro-2-methylimidazo[1,2-a]pyridin-6-yl}indazole-7-carboxamide], the AC50 in the assay with MYB mRNA is less than 100 nM; in the assay with HTT mRNA, 100 to 1000 nM. Also, the IC50 is less than 100 nM in the assay on MYB mRNA and 100 to 1000 nM in the assay with HTT mRNA.
`CCN(CC)C1(C)CCN(c2ccc(C(=O)Nc3cc(F)c4nc(C)cn4c3)c3nn(CC)cc23)CC1` [Compound 517, 4-[4-(diethylamino)-4-methylpiperidin-1-yl]-2-ethyl-N-{8-fluoro-2-methylimidazo[1,2-a]pyridin-6-yl}indazole-7-carboxamide trifluoroacetic acid]: in the assay on MYB mRNA, the AC50 lay within 100 to 1000 nM and the IC50 lay within 100 to 1000 nM. For the same compound, in the assay on HTT mRNA, the IC50 is 1000 to 10000 nM and the AC50 was more than 10000 nM.
